Measurements: the OPERA property sets (Mansouri et al. 2018)

Compound | melting point [°C] | boiling point [°C] | log10 vapour pressure (mmHg)
COc1cc(O)c(C(C)=O)c(OC)c1 | 82 |  | 
CCc1c(C)c[nH]c1C | 0 | 199 | 
CCCCCCC[C@H](C)O | -35.5 | 194 | -1.17
O=Cc1ccccc1O[C@@H]1O[C@H](CO)[C@@H](O)[C@H](O)[C@H]1O | 175 |  | 
